From publication PMC9666555, “Genuine selective caspase-2 inhibition with new irreversible small peptidomimetics” (Cell Death & Disease, 2022)
Non-standard residues stand in square brackets, D forms with d. Residues, ends and D or L forms follow the SMILES beside them. ξ: configuration not given here. *: point of attachment. ξTHIQ1CO(6-Me) = Cc1ccc2c(c1)CCNC2C(=O)O; X1 = O=C(O)CC(N*)C(=O)COc1c(F)cccc1F; Quinaldoyl = O=C(c1ccc2ccccc2n1)*

Key:
Kallikrein-8 = molecular target: T1, Kallikrein-8 (Homo sapiens, UniProt O60259); test: Non-caspase enzyme assay, Kallikrein-8; format: biochemical; conditions: concentrations up to 10 µM
T1 construct: purchased R&D Systems 2025-SE-010
T1 sequence (O60259 33-260): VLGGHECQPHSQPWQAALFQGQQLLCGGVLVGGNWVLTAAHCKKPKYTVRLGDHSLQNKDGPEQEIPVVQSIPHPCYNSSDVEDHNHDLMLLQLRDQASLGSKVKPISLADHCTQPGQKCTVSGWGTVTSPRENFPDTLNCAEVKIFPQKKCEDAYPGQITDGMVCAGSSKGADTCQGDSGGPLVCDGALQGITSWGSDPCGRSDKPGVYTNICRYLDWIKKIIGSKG
Experimental: (§1) Stock solutions were stored at −80 °C. […]
(§2) Non-caspase enzyme assays
(§3) The human pro- kallikrein-1 (pro-hK1) was activated in a buffer containing: Tris-HCl 50 mM, CaCl2 10 mM, NaCl 150 mM, Brij-35 0,05% pH 7,5. Human pro-kallikrein-6 and -8 (pro-hK6 and 8 were activated using Lysyl-endopeptidase (Wako- BioProducts®) at a 1/500 weight ratio, in a buffer containing 50 mM Tris and 0,05% Brij-35 (pH 8). Kinetics using non-caspase enzymes for selectivity studies were done according to the following conditions.
(§4) Enzymes Substrates Buffers
(§5) Cathepsine B (0.2 nM) z-RR-AMC 20 µM Acétate de sodium 0,1 M; EDTA 1mM ; […]
(§6) Cathepsine L (1.2 nM) RLR-AMC 25 µM Acétate de sodium 0,1 M; EDTA 1mM ; […]
(§7) Cathepsine D (0.1 nM) Mca-Gly-Ly s-Pro-Ile-Leu-Phe-Phe- Citrate de Sodium 0,1 M; EDTA 2 mM ; Arg-Leu-Lys(Dnp)-D-Arg-NH2 10 µM Brij-35 0,01%; pH 4 hK1 (4 nM) Boc-VPR-AMC 100µM Tris 50mM; Citrate 1M; Brij-35 0.05%; pH7 hK6 (2 nM ) Boc-QAR -AMC 100 µM Tris 50mM; Citrate 1M; Brij-35 0.05%; pH7 hK8 (1 nM) Boc-VPR-AMC 100µM Tris 50mM; Citrate 1M; Brij-35 0.05%; pH7
(§8) Thrombine (10 mU/mL) Boc-VPR-AMC 100µM Tris 50mM; Citrate 1M; Brij-35 0.05%; pH7 Plasmine (4 nM ) Boc-QAR -AMC 100µM Tris 50mM; Citrate 1M; Brij-35 0.05%; pH7 Trypsine (0.1 nM) Boc-QAR -AMC 100µM Tris 50mM; Citrate 1M; Brij-35 0.05%; pH7

[1] = molecular target: human recombinant Caspase-6 (Homo sapiens, UniProt P55212); test: Additional enzyme kinetics, Caspase-6; conditions: concentrations up to 10 µM
human recombinant Caspase-6, sequence (P55212 24-179 limits assumed): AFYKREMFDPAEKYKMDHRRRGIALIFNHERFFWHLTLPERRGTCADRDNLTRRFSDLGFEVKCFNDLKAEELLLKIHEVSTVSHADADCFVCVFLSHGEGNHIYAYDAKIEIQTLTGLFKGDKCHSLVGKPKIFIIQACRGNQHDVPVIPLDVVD
human recombinant Caspase-6, sequence (P55212 194-293 limits assumed): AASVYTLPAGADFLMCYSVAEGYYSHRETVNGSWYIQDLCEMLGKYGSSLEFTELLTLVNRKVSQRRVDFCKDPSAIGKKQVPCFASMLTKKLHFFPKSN
Experimental: (§9) The human active recombinant Caspase-3 (#707-C3) was purchased from R&D Systems (Minneapolis, USA). […] Stock solutions were stored at −80 °C. […] Caspase inhibitors were solubilized in DMSO at 10 mM and stored at −80 °C.
(§10) Initial velocity (V0) was determined from the linear portion of the progress curve. The composition of the activity buffer was: 20 mM HEPES, pH 7.4; 0.1% CHAPS, 5 mM DTT, 2 mM EDTA; 800 mM sodium succinate for Caspase-2 (0.2 nM) with 25 µM of Ac-VDVAD-7-amino-3-methylcoumarin (AMC) and 20 mM HEPES, pH 7.4; 0.1% CHAPS, 5 mM DTT, 2 mM EDTA; supplemented with 1 mg/mL of stabilizing agent bovine serum albumin (BSA) for Caspase-3 (0.1 nM) with 10 μM of Ac-DEVD-AMC. Compounds (0.001–100 µM) were tested in duplicate for each inhibitor concentration to detect their inhibitory potential. Enzymes and compounds were incubated for 30 min before initiating enzymatic reaction by adding substrate. Initial rates determined in control experiments (V0) were considered as 100% of the caspase activity; initial rates that were below 100% in the presence of tested compound (Vi) were considered as inhibition. The inhibitory activity of compounds was expressed as IC50 (Inhibitor concentration giving 50% inhibition). The values of IC50 were calculated by fitting the experimental data using Mars data Analysis 2.0 and KaleidaGraph software.1 %Inhibition=1001−Vi/V0=100I0/IC50+I0

Cathepsin-L = Cathepsin-L (Homo sapiens, UniProt P07711); test: Non-caspase enzyme assay, Cathepsin-L; format: biochemical; conditions: concentrations up to 10 µM
Cathepsin-L, sequence (P07711 114-333): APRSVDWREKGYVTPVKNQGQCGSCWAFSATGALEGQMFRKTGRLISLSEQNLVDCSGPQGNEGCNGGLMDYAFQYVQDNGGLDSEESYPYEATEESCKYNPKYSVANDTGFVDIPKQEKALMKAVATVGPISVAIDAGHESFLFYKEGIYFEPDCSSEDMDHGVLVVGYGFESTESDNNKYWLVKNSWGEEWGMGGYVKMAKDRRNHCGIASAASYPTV
Experimental: as §1, §2, §3, §4, §5, §6, §7, §8

Cathepsin-D = Cathepsin-D (Homo sapiens, UniProt P07339); test: Non-caspase enzyme assay, Cathepsin-D; format: biochemical; conditions: concentrations up to 10 µM
Cathepsin-D, sequence (P07339 65-412): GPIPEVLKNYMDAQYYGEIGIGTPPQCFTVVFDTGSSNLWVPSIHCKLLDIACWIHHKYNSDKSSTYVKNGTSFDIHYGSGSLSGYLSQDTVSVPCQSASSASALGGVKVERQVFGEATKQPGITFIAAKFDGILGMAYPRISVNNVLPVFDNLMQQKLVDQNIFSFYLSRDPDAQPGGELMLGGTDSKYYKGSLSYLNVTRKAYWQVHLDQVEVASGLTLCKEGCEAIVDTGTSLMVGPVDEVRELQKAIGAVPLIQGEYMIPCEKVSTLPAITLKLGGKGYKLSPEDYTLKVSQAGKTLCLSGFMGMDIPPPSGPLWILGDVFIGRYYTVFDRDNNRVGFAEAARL
Experimental: as §1, §2, §3, §4, §5, §6, §7, §8

Plasmin = molecular target: T2, Plasmin (Homo sapiens, UniProt P00747); test: Non-caspase enzyme assay, Plasmin; format: biochemical; conditions: concentrations up to 10 µM
T2 construct: The human active Plasmin, Thrombin, and Trypsin; purchased Sigma-Aldrich
T2 sequence (P00747 581-810 limits assumed): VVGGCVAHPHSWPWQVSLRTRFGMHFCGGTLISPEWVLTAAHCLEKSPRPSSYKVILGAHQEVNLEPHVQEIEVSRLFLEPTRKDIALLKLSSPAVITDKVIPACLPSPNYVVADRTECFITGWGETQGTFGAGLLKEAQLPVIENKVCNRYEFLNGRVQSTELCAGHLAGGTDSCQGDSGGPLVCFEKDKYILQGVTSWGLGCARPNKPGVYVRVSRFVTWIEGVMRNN
T2 sequence (P00747 97-580 partner limits assumed): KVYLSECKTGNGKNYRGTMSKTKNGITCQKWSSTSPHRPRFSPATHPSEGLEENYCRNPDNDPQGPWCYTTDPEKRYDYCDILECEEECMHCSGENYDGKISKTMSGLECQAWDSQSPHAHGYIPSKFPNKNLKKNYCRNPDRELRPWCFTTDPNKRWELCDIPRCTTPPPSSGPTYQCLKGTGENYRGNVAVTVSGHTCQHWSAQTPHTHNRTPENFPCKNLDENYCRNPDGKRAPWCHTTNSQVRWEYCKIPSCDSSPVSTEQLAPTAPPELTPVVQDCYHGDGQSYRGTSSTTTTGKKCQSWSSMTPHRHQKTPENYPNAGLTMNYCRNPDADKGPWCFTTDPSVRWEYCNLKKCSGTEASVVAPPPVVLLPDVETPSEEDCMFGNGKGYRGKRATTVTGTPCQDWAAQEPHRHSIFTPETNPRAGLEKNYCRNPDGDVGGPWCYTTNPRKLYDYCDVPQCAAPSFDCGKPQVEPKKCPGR
Experimental: as §1, §2, §3, §4, §5, §6, §7, §8

[2] = tested on: cell lines or primary neurons in culture; test: Toxicity of inhibitor added to cultured cells; format: cell-based; conditions: at least up to 100 µM; not shown
[3] = molecular target: T3, human active recombinant Caspase-3 (Homo sapiens, UniProt P42574); test: In vitro caspase activity and inhibition assay (IC50), Caspase-3; format: biochemical; conditions: 30 min preincubation; 0.1 nM Caspase-3, 10 µM Ac-DEVD-AMC; read-out: Enzyme assays Casp3 IC50 (converted)
T3 sequence (P42574 29-175 limits assumed): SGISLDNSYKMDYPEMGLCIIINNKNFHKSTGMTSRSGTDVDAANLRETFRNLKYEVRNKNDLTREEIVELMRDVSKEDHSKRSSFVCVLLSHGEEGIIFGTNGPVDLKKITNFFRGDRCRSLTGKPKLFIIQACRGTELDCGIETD
T3 sequence (P42574 176-277 limits assumed): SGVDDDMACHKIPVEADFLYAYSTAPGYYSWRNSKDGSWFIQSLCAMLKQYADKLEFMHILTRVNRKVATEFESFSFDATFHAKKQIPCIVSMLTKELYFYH
Experimental: as §9, §10

| Compound | effect on Kallikrein-8 (Kallikrein-8) | effect on Caspase-6 [1] | effect on Cathepsin-L (Cathepsin-L) | effect on Cathepsin-D (Cathepsin-D) | effect on Plasmin (Plasmin) | toxicity [2] | IC50 [3] [nM] |
| --- | --- | --- | --- | --- | --- | --- | --- |
| CC(C)[C@H](NC(=O)c1ccc2ccccc2n1)C(=O)N[C@@H](CC(=O)O)C(=O)N[C@H](C(=O)N1CC[C@H](CC(C)(C)C)[C@@H]1C(=O)NC(CC(=O)O)C(=O)COc1c(F)cccc1F)C(C)C (stereo partly shown) [LJ3a] | very limited or no effect | very limited or no effect | very limited or no effect | very limited or no effect | very limited or no effect |  |  |
| Cc1ccc2c(c1)CCN(C(=O)[C@@H](NC(=O)[C@H](CC(=O)O)NC(=O)[C@@H](NC(=O)c1ccc3ccccc3n1)C(C)C)C(C)C)C2C(=O)NC(CC(=O)O)C(=O)COc1c(F)cccc1F (stereo partly drawn) [LJ2, Quinolin-2-carbonyl-VDV-(methyl-isoquinolyl)-D-CH2-O(2,6F2)Ph] (Quinaldoyl-VDV[ξTHIQ1CO(6-Me)]-X1) |  |  |  |  |  | devoid of any toxicity | 140 ± 5 |
